Results: patent US9090701B2, “Methods of detecting oxidized calcium/calmodulin dependent protein kinase II” (University of Iowa Research Foundation, priority 2008, dated 2015)

Columns and labels:
cardiomyocytes = assay: Isolated cardiomyocyte TUNEL staining; type: cell-based, mouse; conditions: 100 nM, 24 hours
Description: Myocyte isolations from neonatal mouse or rat pups were modified from previously described methods (Mohler e.g., 2007). To generate the primary cardiomyocyte cultures, hearts were dissected from P1 animals and placed in 1 mL of Ham's F-10. Atrial tissue was removed and the ventricular chambers were rinsed to remove any remaining blood. Hearts were transferred into 1.5 mL of 0.05% Trypsin, 200 μM EDTA in Ham's F-10 medium (Mediatech). Hearts were minced into approximately 20 small pieces using forceps and small scissors and incubated in the Trypsin/EDTA medium at 37° C. Following 15 min, the heart pieces were mixed by a Pasteur pipette and incubated for an additional 15 min. A mixture of 200 μL of soybean trypsin inhibitor (2 mg/mL; Worthington) and 200 μL of collagenase (0.2 mg/mL; 1980 units/mg; Sigma) was incubated with the cells for 35-50 min at 37° C. The cell suspension was pelleted, resuspended in “Complete Medium” (40% DMEM, 40% Ham's F-10, 20% FCS), and plated on plastic dishes. Following five hours, the non-adhered cells (cardiomyocytes) were aspirated from the plate, pelleted, resuspended in Complete Medium, and plated on Mattek tissue culture plates (fibronectin-coated; Roche). Cardiomyocytes were washed with Ham's F-10 and Medium was replaced with “Defined Medium” to prevent the growth of fibroblasts. 100× Defined Medium consists of 100 μg/mL insulin, 500 μg/mL transferrin, 100 nM LiCl, 100 nM NaSeO4, and 10 nM thyroxine. To ensure that pure populations of cardiomyocytes were obtained, cultures were immunolabeled with alpha-actinin Ig (cardiomyocyte-specific marker). Only cultures with >90% cardiomyocytes were used in experiments. (See FIG. 12.) Lentiviral treatments (shRNA, rescue constructs) and apoptosis inducing agents (Iso, AngII) were used for 24 hours. Cells were fixed in 4% paraformaldehyde, permeabilized in 0.1% Triton X-100 and sodium citrate, and stained using In Situ cell death detection kits, TMR Red (Roche). TUNEL stain assays were interpreted as previously described (Yang e.g., 2006). Nuclei were co-stained with DAPI. Investigators were blinded to the genetic identity and treatment of the mice in all studies.
Cardiomyocytes from mice that express an inhibitory peptide against CaMKII (AC3-I, Zhang e.g., 2005) were treated with 100 nM AngII for 24 hours in parallel with isolated cardiomyocytes from WT and p47^−/− mice. […] Activity assays for caspase-3, a downstream target enzyme in the CaMKII apoptotic signaling pathway in heart, recapitulated the results from the TUNEL assay (FIG. 7A).

heart = tested on: heart; set-up: species or system mice; conditions: mouse, in vivo
Description: Mice were anesthetized with ketamine (87.5 mg/kg) and xylazine (12.5 mg/kg), and a small incision was made in the skin near the spine, approximately 1 cm above the hip. Minipumps containing saline or AngII (3 mg/kg/day) were inserted and the skin was sutured closed. Other mice were given, daily injections of Iso (30 mg/kg/day, intraperitoneal) for 7 days. Animals were then sacrificed and the heart was removed, fixed, and embedded in paraffin. Transverse heart sections of 5 μm thickness were made. To confirm the identity of cardiomyocytes, heart sections were immunolabeled with alpha-actinin Ig (cardiomyocyte-specific marker). Only sections with >90% cardiomyocytes were used in experiments. (See FIG. 13.) Paraffin was removed, and TUNEL staining was performed using In Situ cell death detection kits, TMR Red (Roche). Nuclei were co-stained with DAPI. To determine percent of TUNEL positive nuclei, whole heart sections were divided into four quadrants and one image was taken at random within each quadrant. In the case of sections from post-MI mice, an average of 50% of the heart quadrants were from portions of the heart adjacent to the MI. An investigator blinded to the identity and treatment of the mice counted the number of total and TUNEL positive cells in each image. […]

angiotensin II (DRVYIHPF; Angiotensin-2; UniProt P01019 25-32, looked up) [AngII, oxidant stimulating agent in cardiac tissue]
Percent of TUNEL positive nuclei (cardiomyocytes; WT cells): significant increase | Percent of TUNEL positive nuclei (cardiomyocytes; p47−/− or AC3-I cardiomyocytes): no significant effect | TUNEL staining of hearts (heart): increased TUNEL staining
